Source: PMC10233092, “Selective Janus kinase 1 inhibition resolves inflammation and restores hair growth offering a viable treatment option for alopecia areata” (Skin Health and Disease, 2023)
Converted amounts (≈) assume the structure as drawn. “And” between values parts separate entries of the source, which are not always exact repeats. Equal values may be shown once.

Legend:
IL‐4, STAT6‐Luc = assay: IL-4-induced JAK-STAT6-luciferase assay in U937 monocytes; assay type: cell-based; conditions: Homo sapiens, U-937, interleukin at EC80
[1] = Solubility in phosphate buffer; assay type: physicochemical; conditions: pH 7.4, aqueous buffer
Excerpt: TABLE 1 In vitro potency and selectivity of JAK inhibitors | column: Solubility (μM) ^c

[2] = Plasma protein binding by equilibrium dialysis; assay type: in vitro ADME; conditions: mouse plasma
Excerpt: (§1) Detailed description in Supplementary materials.

[3] = Unbound fraction in tissue from rearranged Gillette equation; assay type: in vitro ADME, mouse; conditions: mouse; from rearranged Gillette equation, V blood 0.07 L/kg, V tissue 0.6 L/kg
Excerpt: as §1

[4] = Caco permeability and efflux; assay type: in vitro ADME; conditions: human, Caco-2; for Papp A→B: read-out: Caco AtB
Excerpt: TABLE 2 In vitro and in vivo DMPK properties of Cmpd A, B & C | column: In vitro mouse & physical chemical properties / Caco AtB 10^−6 cm/s/Efflux ratio ^b

[5] = Mouse pharmacokinetics i.v./p.o.; assay type: in vivo; conditions: plasma, male C57Bl6 mice; for clearance / Vd: iv, i.v. 0.5-1.0 mg/kg; for Vd: read-out: V ss; for bioavailability: po, p.o. 300 (A), 1.0 (B), 2.0 (C) mg/kg, read-out: Oral % F
Experimental: as §1
Pharmacokinetics and evaluation of compound exposures: Male C57/BL mice were obtained from Si Bei Fu and weighed approximately 20-30 grams (7-9 weeks) at the start of the pharmacokinetic study. Animals had free access to food and water during the course of the experiment. Dose formulations were prepared on the study day and were stirred at room temperature for at least 15 minutes prior dosing and during the administration event. Cmpd A, B and C were dosed at 0.5-1 mg/kg i.v. and 1-300 mg/kg p.o. The dorsal metatarsal vein was used for sampling and typically 0.02 mL blood was withdrawn. Blood was taken at 2, 5, 15, 45 min, 2, 4, 8, 24 hours post the i.v. dose and at 15, 30 min, 1, 2, 4, 8, 24 hours post the p.o. dose. Blood of each sample was transferred into plastic micro centrifuge tubes containing 2 μL of 1000 IU Heparin-Na anticoagulant. These tubes were then inverted several times and placed on wet ice prior to centrifugation at 10,000 rpm for 2 minutes at 4°C in order to collect plasma. Plasma samples were stored at -75±15°C prior analysis. Compound concentrations were analyzed using a LC-MS/MS method (see below).
Effective T1/2 equals Ln2 x Vss/CL.

[6] = tested on: C3H/HeJ mouse model of AA; assay: Hair growth (Hair Index Score) in C3H/HeJ graft-induced AA mice; assay type: in vivo; conditions: for hair growth, result in words: AA mice; for Hair index score (% area x score, 0 to 3): individual mice and mean±SD
Experimental: Female C3H/HeJ graft‐induced mice were used as a preclinical model of Alopecia Areata (AA) according to previous publications.[45], [46], [47] Healthy C3H/HeJ and mice with fully developed AA (16–24 weeks after induction of disease) were monitored by means of body weight and hair index score on a weekly basis for 12 weeks, with free access to food and water (Healthy and AA groups, respectively).
Hair growth was evaluated using a scoring index (Hair Index Score, HIS). A score from 0 to 3 (0 = no fur, 1 = stubble, short broken hairs, 2 = sparse, intermediate length hairs, 3 = normal length and density hairs) was taken times the surface area of the mouse with each respective score (dorsal area = 50%, ventral area = 50%).
12 mice were given once daily servings of Cmpd A for free eating at approximately 100 mg/kg (compound dissolved in 10 ml tap water and mixed with 5 g grounded R70 standard rodent chow from Lantmännen, Sweden) for 4 weeks. Typically, these servings were finished within 2 h. Six mice were terminated at the end of the treatment period, blood and skin taken for determination of drug concentration and skin sampled for histopathological evaluation (see below, these mice are representing the systemic JAK1 inhibition group in histopathological evaluations). Skin biopsies for mRNA expression and blood was sampled from the other 6 mice where after these mice were followed off treatment for an additional 8 weeks when terminal samples were taken (8w off Tx group).
Another set of 6 mice were treated topically on the right side of their back with Cmpd B (0.1% cream formulation, Eucerin Aquaporin rich) for 12 weeks (local JAK1 inhibition group). Initially, twice weekly for 2 weeks followed by once weekly due to high tissue retention. Plasma exposure was evaluated during the course of the study as well as at termination when also skin was sampled for exposure, histopathological evaluation and mRNA expression.
The aim of the study was to achieve similar skin exposures by both routes of administration but only systemic exposure after oral administration. […] Blood, skin, lymph nodes and spleens were collected at termination for evaluation of exposure, mRNA expression, histopathology (RNAScope) and cell differentials (flow cytometry). Untreated healthy and alopecic mice served as controls (n = 6).

[7] = topical application (local exposure)

## Cc1cnc(Nc2cc(N3C[C@@H]4C[C@H]3CN4C)cnc2F)nc1N[C@H](C)[C@H](C)CO [Cmpd B, (2S,3R)-3-{[2-({2-fluoro-5-[(1S,4S)-5-methyl-2,5-diazabicyclo[2.2.1]heptan-2-yl]pyridin-3-yl}amino)-5-methylpyrimidin-4-yl]amino}-2-methylbutan-1-ol]
IL‐4, STAT6‐Luc
  IC50: 0.11 µM
[1]
  solubility: > 955 µM
[2]
  f u, plasma: 0.74
[3]
  f u, tissue: 0.063
[4]; Efflux ratio = BtA/AtB
  efflux ratio: 14
[4]
  Papp A→B: 0.3 ×10⁻⁶ cm/s
[5]
  clearance: 38 mL/min/kg
  Vd: 8.4 L/kg
  bioavailability: 16%
[6]; [7]
  hair growth, result in words: did not restore hair growth
[6]; Local JAK1i (0.1% cream topical), treated side, w0, n=6
  Hair index score (% area x score, 0 to 3): 50 and 0
[6]; Local JAK1i (0.1% cream topical), treated side, w0, n=6, mean
  Hair index score (% area x score, 0 to 3): 17±26
[6]; Local JAK1i (0.1% cream topical), untreated side, w0, n=6
  Hair index score (% area x score, 0 to 3): 30 and 0 and 10
[6]; Local JAK1i (0.1% cream topical), untreated side, w0, n=6, mean
  Hair index score (% area x score, 0 to 3): 7±12
[6]; Local JAK1i, treated side, w1
  Hair index score (% area x score, 0 to 3): 50 and 0 and 100
[6]; Local JAK1i, treated side, w1, mean
  Hair index score (% area x score, 0 to 3): 25±42
[6]; Local JAK1i, treated side, w4
  Hair index score (% area x score, 0 to 3): 80 and 0 and 10 and 20
[6]; Local JAK1i, treated side, w4, mean
  Hair index score (% area x score, 0 to 3): 18±31
[6]; Local JAK1i, treated side, w6
  Hair index score (% area x score, 0 to 3): 200 and 0 and 50 and 30
[6]; Local JAK1i, treated side, w6, mean
  Hair index score (% area x score, 0 to 3): 47±78
[6]; Local JAK1i, treated side, w7
  Hair index score (% area x score, 0 to 3): 200 and 80 and 0 and 100
[6]; Local JAK1i, treated side, w7, mean
  Hair index score (% area x score, 0 to 3): 80±75
[6]; Local JAK1i, treated side, w8
  Hair index score (% area x score, 0 to 3): 200 and 0 and 50 and 100
[6]; Local JAK1i, treated side, w8, mean
  Hair index score (% area x score, 0 to 3): 58±80
[6]; Local JAK1i, treated side, w9
  Hair index score (% area x score, 0 to 3): 240 and 0 and 25 and 70 and 90
[6]; Local JAK1i, treated side, w9, mean
  Hair index score (% area x score, 0 to 3): 71±91
[6]; Local JAK1i, treated side, w11
  Hair index score (% area x score, 0 to 3): 240 and 0 and 100 and 80
[6]; Local JAK1i, treated side, w11, mean
  Hair index score (% area x score, 0 to 3): 70±94
[6]; Local JAK1i, untreated side, w1
  Hair index score (% area x score, 0 to 3): 40 and 0 and 100
[6]; Local JAK1i, untreated side, w1, mean
  Hair index score (% area x score, 0 to 3): 23±41
[6]; Local JAK1i, untreated side, w4
  Hair index score (% area x score, 0 to 3): 70 and 0 and 10 and 30
[6]; Local JAK1i, untreated side, w4, mean
  Hair index score (% area x score, 0 to 3): 18±28
[6]; Local JAK1i, untreated side, w6
  Hair index score (% area x score, 0 to 3): 170 and 0 and 10 and 20
[6]; Local JAK1i, untreated side, w6, mean
  Hair index score (% area x score, 0 to 3): 33±67
[6]; Local JAK1i, untreated side, w7
  Hair index score (% area x score, 0 to 3): 170 and 0
[6]; Local JAK1i, untreated side, w7, mean
  Hair index score (% area x score, 0 to 3): 28±69
[6]; Local JAK1i, untreated side, w8
  Hair index score (% area x score, 0 to 3): 170 and 0 and 10
[6]; Local JAK1i, untreated side, w8, mean
  Hair index score (% area x score, 0 to 3): 30±69
[6]; Local JAK1i, untreated side, w9
  Hair index score (% area x score, 0 to 3): 200 and 0 and 25
[6]; Local JAK1i, untreated side, w9, mean
  Hair index score (% area x score, 0 to 3): 37±80
[6]; Local JAK1i, untreated side, w11
  Hair index score (% area x score, 0 to 3): 200 and 0 and 30 and 50
[6]; Local JAK1i, untreated side, w11, mean
  Hair index score (% area x score, 0 to 3): 47±78

## COCC(C(=O)Nc1cccc2c(-c3nc(Nc4cccc(S(C)(=O)=O)c4F)ncc3F)c[nH]c12)N1CCN(C)CC1 (stereo not shown) [Cmpd C]
IL‐4, STAT6‐Luc
  IC50: 0.024 µM
[1]
  solubility: 6.6 µM (≈ 3.96 µg/mL)
[2]
  f u, plasma: 0.11
[3]
  f u, tissue: 0.011
[4]
  Papp A→B: 6.7 ×10⁻⁶ cm/s
[5]
  clearance: 26 mL/min/kg
  Vd: 6.9 L/kg
  bioavailability: 86%
[6]; oral daily servings (systemic exposure)
  hair growth, result in words: induced hair growth
[6]; [7]
  hair growth, result in words: did not
